In assay [1] the target is T1, human A1-adenosine receptor (Homo sapiens, UniProt P30542).
T1 construct: expressed in transfected cells; host or cells: CHO cells
T1 sequence (P30542 1-326): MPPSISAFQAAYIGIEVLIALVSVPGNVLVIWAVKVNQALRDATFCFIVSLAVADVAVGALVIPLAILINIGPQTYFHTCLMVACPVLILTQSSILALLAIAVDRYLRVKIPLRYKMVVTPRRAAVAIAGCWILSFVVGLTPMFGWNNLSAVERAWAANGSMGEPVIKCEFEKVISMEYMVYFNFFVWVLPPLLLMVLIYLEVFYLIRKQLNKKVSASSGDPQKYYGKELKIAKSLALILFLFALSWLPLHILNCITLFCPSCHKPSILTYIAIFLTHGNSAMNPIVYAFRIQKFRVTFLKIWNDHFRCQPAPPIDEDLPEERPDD
Description: Radioligand binding with [3H]CCPA on recombinant human A1-adenosine receptors expressed by CHO cells. As to conditions: read-out: A1 K1, Human. From the text: The following selective radioligands are used in the biological tests: • [^3H]CCPA (for A1 ARs) [Klotz et al., Naunyn-Schmiedeberg's Arch. Pharmacol., 340, 679 (1989)] • [^3]MSX-2 (for A2A ARs) [Muiller et al., Eur. J. Pharm. Sci., 10, 259 (2000)] • [^3H]ZM241385 (for A2B ARs_[X.-D. Ji, K. A. Jacobson, Drug Des. Discov., 16, 217 (1999)] • [^3H]PSB-11 (new antagonistic radioligand for human A3 ARs) [M. Dieckmann, M. Thorand, V. Ozola, C. E. Muiller, in Vorbereitung [Preparation] (2001)]. • [^125I]AB-MECA (for rat-A3 ARs) [Olah et al., Mol. Pharmacol., 45, 978 (1994)]. Description of the Assays That are Used for Testing Substances Production of Tissue Preparations Made from Rat Brains
As cell cultures, for example, CHO cells, which express the human A1-adenosine receptor, are used.
The nutrient medium, trypsine and PBS (phosphate-buffered common salt solution) are heated in a water bath to 37° C. The medium is suctioned off from the flask that is approximately 80% to 90% confluently covered with CHO cells. […]
The mixture is incubated for 90 minutes in an oscillating water bath at 23° C. […] The filter plates are conveyed in scintillation vials, doused with 2.5 ml of Ultima Gold Scintillation cocktail and incubated for at least 6 hours before they are measured in a scintillation counter.
The mean value is calculated from three independent experiments. […]

In assay [2] the target is T2, A1 adenosine receptor (Rattus norvegicus, UniProt P25099).
T2 sequence (P25099 1-326): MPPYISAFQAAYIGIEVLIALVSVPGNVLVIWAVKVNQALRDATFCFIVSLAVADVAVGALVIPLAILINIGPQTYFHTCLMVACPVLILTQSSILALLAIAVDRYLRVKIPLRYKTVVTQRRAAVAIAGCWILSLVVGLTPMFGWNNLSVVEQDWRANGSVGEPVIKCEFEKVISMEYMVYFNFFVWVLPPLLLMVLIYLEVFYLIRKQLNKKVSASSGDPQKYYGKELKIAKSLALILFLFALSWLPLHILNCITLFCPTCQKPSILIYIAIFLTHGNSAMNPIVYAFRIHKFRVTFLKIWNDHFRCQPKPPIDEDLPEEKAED
As to conditions: Table 1, literature values, cited from earlier work.

For assay [3], the target named is A2A adenosine receptor (Rattus norvegicus, UniProt P30543). As to conditions: Table 1, literature values; cited from earlier work.

Consider “4-(chloropyrazolyl)-1-(3-phenylpropyl)-[1,2,4-]triazolo[4,3-a]quinoxaline [Y = C—CH2—CH2—CH2-Ph, R5 = H, R6 = Cl]”, for which, in assay [1], the Ki was 2 nM.
With `Clc1cc(-c2nc3ccccc3n3cnnc23)[nH]n1` [Y = C—H, R5 = H, R6 = Cl], the “A1 % Inhibition @ 10 μmol” value in assay [2] (10 μmol) is on record as “(35%)”. For the same compound, the Ki in assay [2] (read-out: A1 K1) was over 10000 nM. The “A2A % Inhibition @ 25 μmol” value in assay [3] was “(21%)”.

These data come from patent US20050107611A1, “Pyrazolyl-substituted triazoloquinoxalines” (priority 2001, published 2005).
